The values below are quoted from earlier work in patent publication US20170216217A1, “SPHERICAL MICROCAPSULES WITH ENHANCED ORAL BIOAVAILABILITY” (I2O Pharma Ltd., priority 2016, published 2017).

Structures are written as SMILES.

As for `CN1CCN(C2=Nc3cc(Cl)ccc3Nc3ccccc32)CC1` [Clozapine], the Oral bioavailability is recorded as 27%.
